In US6569882B2, “Bis-sulfonamide hydroxyethyl-amino retroviral protease inhibitors” (G. D. Searle & Co., priority 1995, dated 2003) one finds EC50 and IC50 data, which are given here for 15 compounds.

pEC50, pIC50: −log10 of the molar value. Read-outs that look alike come from different tables or passages of the source.

One assay deals with HIV-1 in CEM cells. Kind of assay: CEM cell assay: HIV inhibition in acutely infected cells, tetrazolium (MTT) colorimetric. The format is cell-based. The following applies: Human immunodeficiency virus 1, CCRF-CEM, 168 h. The procedure: The effectiveness of various compounds were determined in the above-described enzyme assay and in a CEM cell assay.
The HIV inhibition assay method of acutely infected cells is an automated tetrazolium based colorimetric assay essentially that reported by Pauwles et al, J. Virol. Methods, 20, 309-321 (1988). Assays were performed in 96-well tissue culture plates. CEM cells, a CD4+ cell line, were grown in RPMI-1640 medium (Gibco) supplemented with a 10% fetal calf serum and were then treated with polybrene (2 μg/ml). An 80 μl volume of medium containing 1×10^4 cells was dispensed into each well of the tissue culture plate. To each well was added a 100 μl volume of test compound dissolved in tissue culture medium (or medium without test compound as a control) to achieve the desired final concentration and the cells were incubated at 37° C. for 1 hour. A frozen culture of HIV-1 was diluted in culture medium to a concentration of 5×10^4 TCID50 per ml (TCID50=the dose of virus that infects 50% of cells in tissue culture), and a 20 μL volume of the virus sample (containing 1000 TCID50 of virus) was added to wells containing test compound and to wells containing only medium (infected control cells). Several wells received culture medium without virus (uninfected control cells). Likewise, the intrinsic toxicity of the test compound was determined by adding medium without virus to several wells containing test compound. In summary, the tissue culture plates contained the following experiments:
In experiments 2 and 4 the final concentrations of test compounds were 1, 10, 100 and 500 μg/ml. Either azidothymidine (AZT) or dideoxyinosine (ddI) was included as a positive drug control. […] DMSO was added to all control wells at an appropriate concentration.
Following the addition of virus, cells were incubated at 37° C. in a humidified, 5% CO2 atmosphere for 7 days. Test compounds could be added on days 0, 2 and 5 if desired. On day 7, post-infection, the cells in each well were resuspended and a 100 μl sample of each cell suspension was removed for assay. A 20 μL volume of a 5 mg/ml solution of 3-(4,5-dimethylthiazol-2-yl)-2,5-diphenyltetrazolium bromide (MTT) was added to each 100 μL cell suspension, and the cells were incubated for 4 hours at […] in a 5% CO2 environment. […] To each sample was added 100 μl of 10% sodium dodecylsulfate in 0.01 N HCl to lyse the cells, and samples were incubated overnight. The absorbance at 590 nm was determined for each sample using a Molecular Devices microplate reader. Absorbance values for each set of wells is compared to assess viral control infection, uninfected control cell response as well as test compound by cytotoxicity and antiviral efficacy.

The next assay addresses T1, HIV protease (Human immunodeficiency virus type 1 group M subtype B, UniProt P04585).
T1 construct: HIV protease is diluted in the assay buffer to a final enzyme concentration of 12.3 nanomolar, based on a molecular weight of 10,780
The assay is described as follows: HIV protease enzyme assay (fluorescence, peptide substrate). The format is biochemical. The following applies: concentration reducing enzyme activity by 50%; substrate 80 μM, enzyme 12.3 nanomolar, pH 6.4. The source says:
The compounds of the present invention are effective HIV protease inhibitors. Utilizing an enzyme assay as described below, the compounds set forth in the examples herein disclosed inhibited the HIV enzyme. The preferred compounds of the present invention and their calculated IC50 (inhibiting concentration 50%, i.e., the concentration at which the inhibitor compound reduces enzyme activity by 50%) values are shown in Table 16. The enzyme method is described below. The substrate is 2-Ile-Nle-Phe(p-NO2)-Gln-ArgNH2. The positive control is MVT-101 (Miller, M. et al, Science, 246, 1149 (1989)] The assay conditions are as follows:
20 mM sodium phosphate, pH 6.4
The above described substrate is dissolved in DMSO, then diluted 10 fold in assay buffer. Final substrate concentration in the assay is 80 μM.
HIV protease is diluted in the assay buffer to a final enzyme concentration of 12.3 nanomolar, based on a molecular weight of 10,780.
The final concentration of DMSO is 14% and the final concentration of glycerol is 18%. The test compound is dissolved in DMSO and diluted in DMSO to 10× the test concentration; 10 μl of the enzyme preparation is added, the materials mixed and then the mixture is incubated at ambient temperature for 15 minutes. The enzyme reaction is initiated by the addition of 40 μl of substrate. The increase in fluorescence is monitored at 4 time points (0, 8, 16 and 24 minutes) at ambient temperature. Each assay is carried out in duplicate wells.

Setting [1] is: CEM cells acutely infected with HIV-1, 7 days, MTT readout, read-out: EC50.

Consider `COc1ccc(S(=O)(=O)N(CC(C)C)C[C@@H](O)[C@H](Cc2ccccc2)NC(=O)[C@H](C)CS(=O)(=O)N(C)C)cc1` [Example 4], for which the pEC50 (in general, the EC50 on a negative log10 scale, so that one unit is a factor of ten) with HIV-1 in CEM cells is 7.82. Moreover, the pIC50 (as a rule, −log10 of the IC50, conventionally taken in molar units) against HIV protease was 8.40. In the case of `CC(C)CN(C[C@@H](O)[C@H](Cc1ccccc1)NC(=O)[C@H](C)CS(=O)(=O)N1CCCC1)S(=O)(=O)c1ccc2c(c1)OCO2` [Example 13], in the assay with HIV-1 in CEM cells (setting [1]), the pEC50 is 6.75. The pIC50 against HIV protease was 8.22.

Turning to `CC(C)CN(C[C@@H](O)[C@H](Cc1ccccc1)NC(=O)[C@H](C)CS(=O)(=O)N1CCN(Cc2cccnc2)CC1)S(=O)(=O)c1ccc2c(c1)OCO2` [Example 11], at HIV protease, the pIC50 is 8.05. As to `COc1ccc(S(=O)(=O)N(CC(C)C)C[C@@H](O)[C@H](Cc2ccccc2)NC(=O)[C@H](C)CS(=O)(=O)N2CCOCC2)cc1` [Example 1], the pEC50 with HIV-1 in CEM cells (setting [1]) is 7.49. The pIC50 against HIV protease is 8.00.

On to `COc1ccc(S(=O)(=O)N(CC(C)C)C[C@@H](O)[C@H](Cc2ccccc2)NC(=O)[C@H](C)CS(=O)(=O)N2CCN(C)CC2)cc1` [Example 2], for which, in the assay on HIV-1 in CEM cells, the pEC50 is 7.11. Also, the pIC50 against HIV protease is 8.10. Consider `CC(C)CN(C[C@@H](O)[C@H](Cc1ccccc1)NC(=O)[C@H](C)CS(=O)(=O)N1CCN(Cc2ccccc2)CC1)S(=O)(=O)c1ccc2c(c1)OCO2` [Example 9], for which the pEC50 in the assay on HIV-1 in CEM cells (setting [1]) is 7.08. Besides, at HIV protease, the pIC50 was 8.22.

In the case of `CC(C)CN(C[C@@H](O)[C@H](Cc1ccccc1)NC(=O)[C@H](C)CS(=O)(=O)N1CCN(Cc2ccncc2)CC1)S(=O)(=O)c1ccc2c(c1)OCO2` [Example 12], the pEC50 with HIV-1 in CEM cells (setting [1]) was 7.38. The compound also showed a pIC50 against HIV protease of 8.05. Turning to `CC(C)CN(C[C@@H](O)[C@H](Cc1ccccc1)NC(=O)[C@H](C)CS(=O)(=O)N1CCNCC1)S(=O)(=O)c1ccc2c(c1)OCO2` [Example 8], the negative-log EC50 (pEC50) with HIV-1 in CEM cells (setting [1]) is 6.38. Further, the pIC50 at HIV protease was 8.05. `COc1ccc(S(=O)(=O)N(CC(C)C)C[C@@H](O)[C@H](Cc2ccccc2)NC(=O)[C@H](C)CS(N)(=O)=O)cc1` [Example 3]: in the assay on HIV-1 in CEM cells, the pEC50 is 7.40. At HIV protease, this compound gave a pIC50 of 8.22. Compound `CC(C)CN(C[C@@H](O)[C@H](Cc1ccccc1)NC(=O)[C@H](C)CS(=O)(=O)N(C)Cc1ccccc1)S(=O)(=O)c1ccc2c(c1)OCO2` [Example 15] had a pIC50 against HIV protease of 8.40. The same measure, in the same setting: to `COc1ccc(S(=O)(=O)N(CC(C)C)C[C@@H](O)[C@H](Cc2ccccc2)NC(=O)[C@H](C)CS(=O)(=O)N(Cc2ccccc2)C(c2ccccc2)c2ccccc2)cc1` [Example 6] belongs 8.40.

On to `CC(C)CN(C[C@@H](O)[C@H](Cc1ccccc1)NC(=O)[C@H](C)CS(=O)(=O)N1CCN(Cc2ccccn2)CC1)S(=O)(=O)c1ccc2c(c1)OCO2` [Example 10], for which the pEC50 in the assay with HIV-1 in CEM cells (setting [1]) is 7.25. The pIC50 at HIV protease was 8.00. In turn, `COc1ccc(S(=O)(=O)N(CC(C)C)C[C@@H](O)[C@H](Cc2ccccc2)NC(=O)[C@H](C)CS(=O)(=O)N2CCCCC2)cc1` [Example 5] gave a pEC50 with HIV-1 in CEM cells of 6.68. Moreover, the negative logarithm of the IC50 (pIC50) against HIV protease is 7.89. The corresponding values for `COc1ccc(S(=O)(=O)N(CC(C)C)C[C@@H](O)[C@H](Cc2ccccc2)NC(=O)[C@H](C)CS(=O)(=O)NCc2ccccc2)cc1` [Example 7] are 7.49 and 8.52.

`CC(C)CN(C[C@@H](O)[C@H](Cc1ccccc1)NC(=O)[C@H](C)CS(=O)(=O)N(C)c1ccccc1)S(=O)(=O)c1ccc2c(c1)OCO2` [Example 14]: the pEC50 in the assay with HIV-1 in CEM cells (setting [1]) was 7.07. The compound also had a pIC50 on HIV protease of 8.40.
